The NIST ThermoML archive (doi:10.1016/j.fluid.2010.01.027)

Test: wn = mass fraction of the nth substance listed
Settings: Gas, sonar gas analyzer

FC(F)(F)C(F)(F)C(F)(F)F [octafluoropropane] + FC(F)(F)C(F)(F)C(F)(F)C(F)(F)F
speed of sound [m/s]
Settings	w1 = 0.397	w1 = 0.83
248.2 K, 10 kPa	–	105.12
248.2 K, 13 kPa	–	105.03
248.2 K, 20 kPa	–	104.84
248.2 K, 27 kPa	–	104.58
248.2 K, 30 kPa	–	104.45
248.2 K, 33 kPa	–	104.36
248.2 K, 40 kPa	–	104.12
248.2 K, 47 kPa	–	103.84
248.2 K, 50 kPa	–	103.75
248.2 K, 53 kPa	–	103.57
248.2 K, 60 kPa	–	103.27
248.2 K, 67 kPa	–	103.07
259.2 K, 10 kPa	102.59	107.4
259.2 K, 20 kPa	102.16	107.18
259.2 K, 30 kPa	101.68	106.95
259.2 K, 50 kPa	101.06	106.3
259.2 K, 70 kPa	100.12	105.81
259.2 K, 100 kPa	–	104.56
259.2 K, 150 kPa	–	102.68
259.2 K, 200 kPa	–	101.95
271.3 K, 10 kPa	–	109.58
271.3 K, 20 kPa	–	109.17
271.3 K, 30 kPa	–	108.68
271.3 K, 50 kPa	–	107.95
271.3 K, 70 kPa	–	107.66
271.3 K, 100 kPa	–	106.4
271.3 K, 150 kPa	–	104.9
271.3 K, 200 kPa	–	103.44
271.3 K, 250 kPa	–	102.59
271.4 K, 10 kPa	104.64	–
271.4 K, 20 kPa	104.3	–
271.4 K, 30 kPa	103.82	–
271.4 K, 50 kPa	103.1	–
271.4 K, 70 kPa	102.4	–
271.4 K, 100 kPa	101.14	–
271.4 K, 150 kPa	99.12	–
283.1 K, 10 kPa	106.56	112.12
283.1 K, 20 kPa	106.36	111.72
283.1 K, 30 kPa	105.98	111.47
283.1 K, 50 kPa	105.5	111.19
283.1 K, 70 kPa	104.76	110.59
283.1 K, 100 kPa	103.71	109.75
283.1 K, 150 kPa	101.86	108.4
283.1 K, 200 kPa	100.08	106.92
283.1 K, 250 kPa	–	105.34
283.1 K, 297 kPa	–	103.72
283.1 K, 350 kPa	–	101.99
283.1 K, 400 kPa	–	100.1
294 K, 10 kPa	109.01	–
294 K, 20 kPa	108.7	–
294 K, 30 kPa	108.4	–
294 K, 50 kPa	107.67	–
294 K, 70 kPa	107.07	–
294 K, 100 kPa	106.22	–
294 K, 150 kPa	104.61	–
294 K, 200 kPa	103.01	–
294.1 K, 10 kPa	–	114.96
294.1 K, 20 kPa	–	114.62
294.1 K, 30 kPa	–	114.35
294.1 K, 50 kPa	–	113.75
294.1 K, 70 kPa	–	113.21
294.1 K, 100 kPa	–	112.3
294.1 K, 150 kPa	–	111
294.1 K, 200 kPa	–	109.85
301.4 K, 10 kPa	–	116.15
301.4 K, 20 kPa	–	116.05
301.4 K, 30 kPa	–	115.78
301.4 K, 50 kPa	–	115.29
301.4 K, 70 kPa	–	114.72
301.4 K, 100 kPa	–	114.03
301.4 K, 150 kPa	–	112.72
301.4 K, 200 kPa	–	111.59
302.1 K, 10 kPa	110.14	–
302.1 K, 20 kPa	109.74	–
302.1 K, 30 kPa	109.67	–
302.1 K, 50 kPa	109.29	–
302.1 K, 70 kPa	108.73	–
302.1 K, 100 kPa	107.89	–
